# According to patent US8633325B2, “Method for making insect repellent composition” (E I du Pont de Nemours and Company, priority 2002, dated 2014):
# Several values for one entry are separate records, joined by “and”; a condition that tells them apart may be missing. Equal entries are not always repeated.
# Legend:
# [1] = system: female Aedes aegypti mosquitoes; assay: in vitro membrane repellency test, probing of blood-filled wells; type: in vivo; conditions: for Mean percentage repellency as calculated from the ANOVA: versus IPA control
# Protocol: (§1) Approximately 250 female Aedes aegypti mosquitoes were introduced into a chamber containing 5 wells, each covered by a Baudruche (animal intestine) membrane. Wells were filled with bovine blood, containing sodium citrate (to prevent clotting) and ATP (72 mg ATP disodium salt per 26 ml of blood), and heated to 37° C. A volume of 25 μl of isopropyl alcohol, containing one of the test specimens shown in Table 2, was applied to each membrane.
# (§2) After 5 min, 4 day-old female mosquitoes were added to the chamber. The number of mosquitoes probing the membranes for each treatment was recorded at 2 min intervals over 20 min. Each datum represents the mean of three replicate experiments.
# The dihydronepetalactone prepared in Example 4, Formula 4, was tested for repellency against Aedes aegypti mosquitoes essentially as described in Example 3. The experimental design is summarized in Table 6, and all data presented is from five replicate experiments.
# (§3) Percentage repellency was calculated for each repellent treatment at each observation time using the following equation: %Repellency=100−[(T/C)×100] where: • T=the mean number of mosquitoes probing a treated well for that replicate at time tx • C=the mean number of mosquitoes probing the IPA control well at time tx The resulting percentages were then arcsine transformed and an ANOVA was conducted using the calculated repellency from all five replicates. Multiple comparisons of means were conducted using the Student-Newman-Keuls test. The mean arcsines from ANOVA were then converted back into percentages.
# [2] = system: stable flies (Stomoxys calcitrans); assay: in vitro membrane repellency test against stable flies; type: in vivo; conditions: 1% (w/v); for Mean Number of Landings (SEM): 20 minute test; for Mean Number of Landings (SEM) / Mean percentage repellency as calculated from the ANOVA: five replicates; for Mean percentage repellency as calculated from the ANOVA: versus IPA control
# Protocol: as §1, §2, §3
# DHN derived from hydrogenation of trans,cis-nepetalactone (consisting principally of 1S,9S,5R,6R-5,9-dimethyl-3-20 oxabicyclo[4.3.0]nonan-2-one; Formula 4), designated “Experimental Sample #1”, and the mixture of dihydronepetalactones prepared according to Example 2 (designated Experimental Sample #2; mDHN), were tested for repellency against Stomoxys calcitrans, essentially as described in Example 3. The DHN used here differed from that prepared in Example 4 in that it was derived from hydrogenation (using a Pd/SrCO3 catalyst) of trans,cis-nepetalactone crystallized from commercial oil (Berjé, NJ). In these experiments, an additional positive control compound was included, namely p-menthane-3,8-diol (PMD), obtained from Takasago International Corp. (USA), Rockleigh, N.J. The experimental design is summarized in Table 10, and all data presented is an average of five replicate experiments.
# [3] = system: unfed adult female A. albimanus; assay: in vitro membrane repellency test against anopheles mosquitoes; type: in vivo, Anopheles albimanus; conditions: 1% (w/v); for Mean Number of Probes (SEM): 20 minute test; for Mean Number of Probes (SEM) / Mean percentage repellency as calculated from the ANOVA: five replicates; for Mean percentage repellency as calculated from the ANOVA: versus IPA control
# Protocol: as §1, §2, §3
# DHN derived from hydrogenation of trans,cis-nepetalactone (consisting principally of 1S,9S,5R,6R-5,9-dimethyl-3-oxabicyclo[4.3.0]nonan-2-one; Formula 4) designated “Experimental Sample #1”, and the mixture of dihydronepetalactones prepared according to Example 2 (designated as “Experimental Sample #2”; mDHN) were tested for repellency against one hundred unfed adult female A. albimanus, essentially as described in Example 3. The DHN used here differed from that prepared in Example 4 in that it was derived from hydrogenation (using a Pd/SrCO3 catalyst) of trans,cis-nepetalactone crystallized from commercial oil (Berjé, Bloomfield, N.J.). PMD was again included as a further control. The experimental design is summarized in Table 13, and all data presented is the average of five replicate experiments.
# [4] = system: deer tick Ixodes scapularis; assay: tick repellency on forearms of human volunteers; type: in vivo; conditions: for statistical comparison of protection times (ANOVA): 30% (w/v); for Mean complete protection time (SEM): 30% (w/v) in isopropanol, 25 μl topically on 4 cm circle
# Protocol: A volume of 25 μl of each compound (30% (w/v) in isopropanol) was applied within 4 cm diameter circles drawn on the left forearms of six male human volunteers. Each volunteer had two repellents applied individually within two circles on this forearm; a single 4 cm diameter circle drawn on the other arm was left untreated to act as a control for tick attractiveness. Laboratory-reared unfed nymphs of the deer tick Ixodes scapularis were brought within 1 mm of the untreated circles on cotton buds (Q-tip®). If normal questing behavior was observed, and/or the insect crawled onto the untreated area, it was deemed qualified and then presented to a treated area. A qualified tick which quested at or crawled onto the treated area within 60 s was recorded as having not been repelled. […] Additionally, a qualified tick that crawled onto the treated area but fell off within an additional 60 s was recorded as repelled. Each volunteer had 5 qualified ticks offered to each treated circle at approximately hourly intervals. Exposures continued until 3 out of any group of 5 offered ticks were deemed ‘attracted’. The first non-repelled tick was defined as the first attracted tick which was followed by a second attracted tick within the same or following exposure period. The time of the first confirmed attracted tick was deemed to be the time at which complete repellency ‘broke down’ for that volunteer.
# [5] = system: female Anopheles albimanus mosquitoes; assay: mosquito repellency on forearms of human volunteers (test cage); type: in vivo; conditions: for Mean complete protection time (h) (SEM): 1.0 ml on 250 cm^2 forearm
# Protocol: The DHN derived from hydrogenation of trans,cis-nepetalactone (consisting principally of 1S,9S,5R,6R-5,9-dimethyl-3-oxabicyclo[4.3.0]nonan-2-one; Formula 4), prepared as in Example 7, and the mixture of dihydronepetalactones prepared according to Example 2, were tested for repellency against A. albimanus, with DEET included in the test as a positive control, using adult human volunteers. Test cages (2×2×2 feet) with two sleeved entry ports on each of two opposite sides were used, with a hand rest in the center. The sides and top were screened and the base was equipped with a mirror to facilitate observations. Two hundred adult female mosquitoes, which had never received a blood meal and which had been deprived of their normal diet of 10% sucrose 24 h prior to use, were released into the test cage. Each volunteer was pre-qualified as attractive through having 10 insects land on their untreated forearms within 30 s of insertion into the cage.
# A volume of 1.0 ml of each compound (either 5% or 10% (w/v) in isopropanol) was applied to 250 cm^2 areas on the forearms of six male human volunteers, the remainder of the limbs having been made inaccessible to insects. Each volunteer had different repellents applied individually onto each forearm. After allowing the applied repellents to dry for 30 min, the forearms were placed into the test cage for 5 min periods at 30 min intervals, and the number of mosquitoes probing or biting during each exposure period recorded. Breakdown of repellency was recorded for each repellent on each volunteer. Breakdown was defined as the time at which the first confirmed bite occurred; the first confirmed bite was defined as a bite which was followed by a second bite either within the same or the next exposure period. The data is presented in Table 17 as mean complete protection time.
# [6] = system: Monomorium destructor ants; conditions: after 25 seconds of exposure to vapors; cited from earlier work
# [7] = 1% (w/v), 20 minute observation period, Example 5, five replicates
# [8] = 1% (w/v), Example 5, five replicates
Structure (SMILES),"Mean Number of Probes (SEM) [1, 7]","time until mosquito probing initiated (probing density over time, FIG. 9) ([1]; 1% (w/v), Example 5)","Mean Time (min) (SEM) to ""First probe"" [1, 8]","Mean percentage repellency as calculated from the ANOVA [1, 8]",repellency comparison between treatments (ANOVA) [2],Mean Number of Landings (SEM) [2],Mean percentage repellency as calculated from the ANOVA [2],repellency comparison between treatments (ANOVA) [3],Mean Number of Probes (SEM) [3],Mean percentage repellency as calculated from the ANOVA [3],statistical comparison of protection times (ANOVA) [4],Mean complete protection time (SEM) [4],Mean complete protection time (h) (SEM) ([5]; 5% (w/v) in isopropanol),Mean complete protection time (h) (SEM) ([5]; 10% (w/v) in isopropanol),also measured
"CCN(CC)C(=O)c1cccc(C)c1 [DEET, N,N-diethyl-m-toluamide]",4.8 (3.2),6 min,14.8 min and 14.8 (3.2) min,92.4%,performed statistically equally well,17.8 (4.96),55.5%,statistically equal in efficacy,50.4 (13.01),13.3%,statistically indistinguishable in the longevity of their repellency,124 min and 124.0 (69.95) min,4.0 (0.5) h,6.2 (0.63) h,"Mean Time (min) (SEM) to ""First probe"" ([1]; 1% (w/v) in isopropyl alcohol, 25 μl on membrane, Example 3, three replicates): 12 min and 12.0 (0.0) min; Mean Number of Probes (SEM) ([1]; 1% (w/v), over 20 min, Example 3, three replicates): 4.55 and 4.55 (0.29)"
"C[C@H]1COC(=O)[C@@H]2[C@@H]1CC[C@@H]2C [DHN, (1S,9S,5R,6R)-5,9-dimethyl-3-oxabicyclo[4.3.0]nonan-2-one]",4.0 (2.16),10 min,16.0 (2.09) min,96.1%,performed statistically equally well,21.2 (3.35),43.2%,statistically equal to DEET,38.0 (9.71),32.9%,statistically indistinguishable in the longevity of their repellency,109 min and 109.0 (58.64) min,1.8 (0.12) h,3.5 h and 3.5 (0.29) h,"Mean Number of Probes (SEM) ([1]; 0.2% (w/v), 20 minute observation period, Example 5, five replicates): 23.2 (5.97); Mean Time (min) (SEM) to ""First probe"" ([1]; 0.2% (w/v), Example 5, five replicates): 8.4 (1.16) min; Mean Time (min) (SEM) to ""First probe"" ([1]; 0.2% (w/v), Example 5, five replicates, listed as dihydronepetalactone): 8.4 min; Mean Number of Probes (SEM) ([1]; 0.5% (w/v), 20 minute observation period, Example 5, five replicates): 16.2 (5.49); Mean Time (min) (SEM) to ""First probe"" ([1]; 0.5% (w/v), Example 5, five replicates): 9.6 (2.48) min; Mean Time (min) (SEM) to ""First probe"" ([1]; 0.5% (w/v), Example 5, five replicates, listed as dihydronepetalactone): 9.6 min; Mean percentage repellency as calculated from the ANOVA ([1]; 0.5% (w/v), Example 5): 66.7%; repellency rank and statistical comparison with 1% DEET ([1]; 1% (w/v), Example 5, ANOVA, Student-Newman-Keuls): ranked first in repellency, and was statistically indistinguishable from 1% DEET; Mean Time (min) (SEM) to ""First probe"" ([1]; 1% (w/v), Example 5, five replicates, listed as Dihydronepetalactone): approximately 16 min; statistical comparison of protection times (ANOVA) ([5]; 5% and 10% (w/v)): provided lesser protection times"
"CC1CCC(C(C)(C)O)C(O)C1 (centres unmarked) [PMD, p-menthane-3,8-diol]",,,,,,33.6 (9.21),4.7%,statistically equal in efficacy,47.2 (8.57),11.5%,,,,,time after which compound became ineffective in repelling landings [2]: 6 min
"CC1COC(=O)C2C(C)CCC12 (centres unmarked) [pure dihydronepetalactone, dihydronepetalactone]",,,,,,,,,,,,,,,ants that ceased to feed [6]: 50-60%
